Assay results: patent US12239132B2, “Compounds and methods for increasing soil nutrient availability” (SOUND AGRICULTURE COMPANY, priority 2018, dated 2025)

Key:
innate soil microbes = assay: Phosphate solubilization in commercial potting soil, sterile vs non-sterile; format: cell-based; details: 12 days
Procedure: In some aspects, a compound disclosed herein, e.g., AB09, stimulates phosphate solubilization of innate soil microbes. The induced phosphate solubilization enhancement was tested for in plant-free soil, which contains an innate diverse microflora of bacteria and fungi. Soil was evenly distributed into pots, half of which were pressure-sterilized in an autoclave. Half of the sterile and half of the non-sterile soil received a treatment. Control pots received a mock treatment. Pots were covered, incubated at room temperature, and orthophosphate levels were measured after twelve days. […] Three replicates of 20 mg air dried soil were measured from each pot and placed into 1.5 mL eppendorf tubes. […] In some instances, disclosed herein are measured phosphate levels at 12 days post treatment. […]
The effect of AB09 on a soil microbiome's innate ability to solubilize phosphorus was tested using commercially available soil, which contains a diverse microflora of bacteria. […] After 12 days of incubation soil phosphorus was extracted using the Bray-1P method and quantified using the malachite green assay.
Phosphate levels at 12 days post treatment. […] Orthophosphate was measured using the malachite-green phosphate method.
Orthophosphate was measured using the malachite-green phosphate method (BioAssay Systems Malachite Green Phosphate Assay Kit Catalog No: POMG-25H). […] Data are quantified on a plate reader at 620 nm. […]

soil consortia cultures = assay: 16S microbiome analysis of soil cultures grown in nitrogen free media; format: cell-based; details: Alpha soil culture, 25 ug/mL, 72 h, vs control
Procedure: 16S microbiome analysis was performed on soil-inoculated cultures grown in nitrogen free media in order to compare the effects of AB09 treatment vs control. […] The increased abundance of these diazotrophs in response to AB09 is consistent with the increased nitrogenase activity observed in Table 1 for Alpha soil. […] Known nitrogen fixing bacteria are indicated with an asterisk (*). Soil inoculated cultures (from Alpha Ag soil culture from Table 1) experience an increase in the relative abundance of diazotrophs when treated with AB09. Soil from agricultural areas was air dried and sieved with a 2 mm sieve. Five hundred milligrams of dried, sieved soil was added to 50 mL of nitrogen free media (Burks-N) in a 250 mL baffled flask. AB09 was added to 25 ug/mL and water was added in equivalent amounts for controls. Flasks were topped with a foam plug and incubated at 30 C, shaking at 100 rpm. DNA was extracted from 250 ul of the soil culture after 72 h of growth using the Qiagen PowerSoil Pro Kit (Cat No. 47014). DNA was checked on a gel and Qubit for quality and concentration, respectively. Ten nanograms of DNA was used in the 16S barcoding kit (SQK-RAB204) with the MinION sequencer. Fastq files from MinKnow were uploaded to Epi2Me and the 16S Oxford Nanopore Technologies kit (SQK-RAB204) was selected. […] Read counts were normalized to the total number of reads with an identified barcode.

## CC1=CC(Oc2c(C)occc2=O)OC1=O (stereo not drawn) [AB09, maltol lactone]
Innate soil microbes; 24 ug/mL in 1% DMSO, 25 mL per pot, Bray-P1 extraction, vs non-sterile control
  level of orthophosphate in non-sterile soil: significantly increased
Innate soil microbes; autoclaved soil, 24 ug/mL
  AB09-induced phosphorus enhancement in sterile soil: not observed
Soil consortia cultures
  abundance of nitrogen fixing bacteria Azotobacter chroococcum and Pseudomonas stutzeri: increased the abundance
